The first assay deals with T1, human PGI2 receptors (hIP) (Homo sapiens, UniProt P43119).
T1 construct: expressed in transfected cells; host or cells: CHO-K1
T1 sequence (P43119 whole entry): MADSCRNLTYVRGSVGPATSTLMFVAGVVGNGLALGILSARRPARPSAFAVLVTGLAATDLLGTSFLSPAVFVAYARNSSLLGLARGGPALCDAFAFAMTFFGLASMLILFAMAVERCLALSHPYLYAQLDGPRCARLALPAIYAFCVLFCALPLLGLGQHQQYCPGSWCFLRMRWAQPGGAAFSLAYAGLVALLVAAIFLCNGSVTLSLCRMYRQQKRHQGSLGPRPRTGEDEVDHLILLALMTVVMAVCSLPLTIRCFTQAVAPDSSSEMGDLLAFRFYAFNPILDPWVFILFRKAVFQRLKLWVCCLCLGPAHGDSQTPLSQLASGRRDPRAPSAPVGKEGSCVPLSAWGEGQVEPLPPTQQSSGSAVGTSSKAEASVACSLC
Put plainly: Method A: positive allosteric modulator activity, cAMP in CHO/hIP cells with 100 pM iloprost. In kind it is cell-based. The settings on record: cAMP relative to 100 pM iloprost alone, test compound 5 uM. The protocol: The positive allosteric modulator activity of a test compound was measured as a change in the amount of intracellular cyclic AMP (cAMP) in the presence of 100 pM of the IP agonist iloprost (manufactured by CAYMAN CHEMICAL), using CHO-K1 cells (CHO/hIP cells) in which human PGI2 receptors (hIP) are stably expressed.
An amount of 5 μL of a mixture (diluted in F-12 culture medium (manufactured by GIBCO) including 0.1% BSA) of iloprost dissolved in DMSO and a test compound dissolved in DMSO was dispensed in advance into a 384-well black microplate, and 5 μL of CHO/hIP cells suspended at a concentration of 1.6×10^6 cells/mL in F-12 culture medium including 0.1% BSA were added to the microplate. After 40 minutes of incubation at room temperature, the amount of cAMP was measured using a cAMP assay kit (cAMP HiRange, manufactured by Cisbio Bioassays). Specifically, 5 μL of a cAMP-d2 solution (including a cell lysate) from the kit were added and the reaction was stopped, then 5 μL of a fluorescence-labeled cAMP antibody solution from the kit was added and incubation was performed for 1 hour at room temperature, after which fluorescence was measured using a PHERAstar plate reader (manufactured by BMG) in HTRF (registered trademark) mode. The amount of cAMP in each well was calculated from a cAMP calibration curve obtained using a standard sample, and the activity of each test compound is noted below as a ratio T/C (%) based on the amount of cAMP for 100 pM of isoprost alone. All of the compounds included in this table were purchased from Asinex Corporation.
Regarding `CC(C)(C)n1nnnc1C(c1ccc(Cl)cc1)N1CCc2ccccc2C1` (centres unmarked) [drawing 118], the T/C % is 113%.

On to `Cc1ccc(S(=O)(=O)Cn2nnnc2C(c2ccc(O)cc2)N2CCc3ccccc3C2)cc1` (centres unmarked), for which the T/C % was 104%.

In turn, `Cc1ccc(C(c2nnnn2C(C)(C)C)N2CCc3ccccc3C2)cc1` (centres unmarked) [drawing 143] gave a T/C % of 112%.

Regarding `CC(C)(C)n1nnnc1C(c1ccccc1)N1CCc2ccccc2C1` (centres unmarked) [drawing 104], the T/C % was found to be 143%.

As to `COc1ccc(C(c2nnnn2Cc2ccccc2)N2CCc3ccccc3C2)cc1OC` (centres unmarked), the T/C % was 90%.

Staying with this assay, now noted: cAMP relative to 100 pM iloprost alone, test compound 10 uM.
As for `COc1ccc(C(c2nnnn2Cc2ccccc2)N2CCc3ccccc3C2)cc1` (centres unmarked), the T/C % was determined as 110%.

Molecule `COc1ccc(OC)c(C(c2nnnn2Cc2ccccc2)N2CCc3ccccc3C2)c1` (centres unmarked) came in with a T/C % of 90%.

The molecule `COCCn1nnnc1C(c1ccccc1OC)N1CCc2ccccc2C1` (centres unmarked) yielded a T/C % of 107%.

`COc1ccc(C(c2nnnn2CCc2ccccc2)N2CCc3ccccc3C2)c(OC)c1` (centres unmarked) showed a T/C % of 106%.

Take `Cc1ccc(Cn2nnnc2C(c2ccc(Cl)cc2)N2CCc3ccccc3C2)cc1` (centres unmarked): the T/C % came to 109%.

As to `CCC(C)(C)n1nnnc1C(c1ccc(Cl)cc1)N1CCc2ccccc2C1` (centres unmarked), the T/C % came out at 148%.

`COc1ccc(C(c2nnnn2Cc2ccc(F)cc2)N2CCc3ccccc3C2)cc1OC` (centres unmarked) returned a T/C % of 96%.

Molecule `COc1ccc(C(c2nnnn2C2CCCC2)N2CCc3ccccc3C2)cc1OC` (centres unmarked) came in with a T/C % of 93%.

Turning to `c1ccc(C(c2nnnn2C2CCCCC2)N2CCc3ccccc3C2)cc1` (centres unmarked) [drawing 120], the T/C % is on record as 112%.

As for `c1ccc(C(c2nnnn2C2CCCCC2)N2CCc3ccccc3C2)cc1` (centres unmarked) [drawing 138], the T/C % is recorded as 98%.

As for `Cc1ccc(Cn2nnnc2C(c2ccc(F)cc2)N2CCc3ccccc3C2)cc1` (centres unmarked), the T/C % is 106%.

Regarding `Cc1ccc(C(c2nnnn2Cc2ccccc2)N2CCc3ccccc3C2)cc1` (centres unmarked) [drawing 140], the T/C % came out at 102%.

Molecule `Cc1ccc(S(=O)(=O)Cn2nnnc2C(c2ccc(F)cc2)N2CCc3ccccc3C2)cc1` (centres unmarked) yielded a T/C % of 93%.

As for `COc1ccc(C(c2nnnn2C2CCCCC2)N2CCc3ccccc3C2)cc1` (centres unmarked), the T/C % is recorded as 111%.

As to `COc1ccc(OC)c(C(c2nnnn2C(C)(C)C)N2CCc3ccccc3C2)c1` (centres unmarked), the T/C % amounted to 100%.

`Cc1ccc(C(c2nnnn2Cc2ccc(F)cc2)N2CCc3ccccc3C2)cc1` (centres unmarked) displayed a T/C % of 117%.

On to `Fc1ccc(C(c2nnnn2C2CCCCC2)N2CCc3ccccc3C2)cc1` (centres unmarked), for which the T/C % is recorded as 104%.

On to `COc1ccc(C(c2nnnn2C2CCCCC2)N2CCc3ccccc3C2)cc1OC` (centres unmarked), for which the T/C % is on record as 87%.

`CCC(C)(C)n1nnnc1C(c1ccc(O)c(OC)c1)N1CCc2ccccc2C1` (centres unmarked) came in with a T/C % of 122%.

On to `Cc1ccc(Cn2nnnc2C(c2ccccc2)N2CCc3ccccc3C2)cc1` (centres unmarked), for which the T/C % is recorded as 117%.

Molecule `COc1ccc(OC)c(C(c2nnnn2Cc2ccc(C)cc2)N2CCc3ccccc3C2)c1` (centres unmarked) displayed a T/C % of 91%.

`COc1ccc(C(c2nnnn2CCc2ccccc2)N2CCc3ccccc3C2)cc1OC` (centres unmarked) showed a T/C % of 106%.

For `COc1ccc(C(c2nnnn2CCc2ccccc2)N2CCc3ccccc3C2)cc1` (centres unmarked), the T/C % is recorded as 114%.

As to `COc1ccc(C(c2nnnn2CS(=O)(=O)c2ccc(C)cc2)N2CCc3ccccc3C2)cc1` (centres unmarked), the T/C % was 101%.

Turning to `COc1ccc(C(c2nnnn2C(C)(C)C)N2CCc3ccccc3C2)cc1OC` (centres unmarked), the T/C % stood at 103%.

On to `Cc1ccc(C(c2nnnn2Cc2ccccc2)N2CCc3ccccc3C2)cc1` (centres unmarked) [drawing 151], for which the T/C % was 103%.

As to `Fc1ccc(C(c2nnnn2CCc2ccccc2)N2CCc3ccccc3C2)cc1` (centres unmarked), the T/C % worked out at 103%.

With `Cc1ccc(C(c2nnnn2C2CCCCC2)N2CCc3ccccc3C2)cc1` (centres unmarked), the T/C % was 100%.

`c1ccc(CCn2nnnc2C(c2ccccc2)N2CCc3ccccc3C2)cc1` (centres unmarked) [drawing 142] yielded a T/C % of 111%.

As for `Oc1ccc(C(c2nnnn2C2CCCCC2)N2CCc3ccccc3C2)cc1` (centres unmarked), the T/C % amounted to 104%.

On to `COCCn1nnnc1C(c1ccc(OC)c(OC)c1)N1CCc2ccccc2C1` (centres unmarked), for which the T/C % was 98%.

`COc1ccc(C(c2nnnn2Cc2ccccc2)N2CCc3ccccc3C2)c(OC)c1` (centres unmarked) came in with a T/C % of 103%.

`Cc1ccc(C(c2nnnn2Cc2ccccc2)N2CCc3ccccc3C2)cc1` (centres unmarked) [drawing 121] came in with a T/C % of 112%.

Consider `c1ccc(Cn2nnnc2C(c2ccccc2)N2CCc3ccccc3C2)cc1` (centres unmarked), for which the T/C % worked out at 112%.

In turn, `COc1ccc(C(c2nnnn2C2CCCCC2)N2CCc3ccccc3C2)c(OC)c1` (centres unmarked) registered a T/C % of 113%.

`CN(C)c1ccc(C(c2nnnn2C2CCCC2)N2CCc3ccccc3C2)cc1` (centres unmarked): the T/C % is given as 103%.

`COc1cc(C(c2nnnn2Cc2ccc(F)cc2)N2CCc3ccccc3C2)ccc1O` (centres unmarked) registered a T/C % of 91%.

The molecule `Cc1ccc(S(=O)(=O)Cn2nnnc2C(c2ccc(C(F)(F)F)cc2)N2CCc3ccccc3C2)cc1` (centres unmarked) displayed a T/C % of 102%.

Consider `COCCn1nnnc1C(c1ccc(O)cc1OC)N1CCc2ccccc2C1` (centres unmarked), for which the T/C % stood at 97%.

In turn, `COc1ccc(OC)c(C(c2nnnn2C2CCCC2)N2CCc3ccccc3C2)c1` (centres unmarked) showed a T/C % of 92%.

As to `COCCn1nnnc1C(c1ccc(F)cc1)N1CCc2ccccc2C1` (centres unmarked), the T/C % was determined as 96%.

In turn, `COc1ccc(OC)c(C(c2nnnn2C2CCCCC2)N2CCc3ccccc3C2)c1` (centres unmarked) yielded a T/C % of 82%.

`COc1ccc(Cn2nnnc2C(c2ccccc2)N2CCc3ccccc3C2)cc1` (centres unmarked) registered a T/C % of 104%.

For `COc1ccc(Cn2nnnc2C(c2ccc(OC)cc2)N2CCc3ccccc3C2)cc1` (centres unmarked), the T/C % was determined as 105%.

The molecule `CCC(C)(C)n1nnnc1C(c1ccccc1)N1CCc2ccccc2C1` (centres unmarked) gave a T/C % of 202%.

Turning to `Clc1ccc(C(c2nnnn2C2CCCC2)N2CCc3ccccc3C2)cc1` (centres unmarked), the T/C % worked out at 110%.

With `COc1cc(C(c2nnnn2CCc2ccccc2)N2CCc3ccccc3C2)ccc1O` (centres unmarked), the T/C % is recorded as 91%.

Molecule `Oc1ccc(C(c2nnnn2C2CCCC2)N2CCc3ccccc3C2)cc1` (centres unmarked) came in with a T/C % of 105%.

For the molecule `COc1cc(C(c2nnnn2Cc2ccccc2)N2CCc3ccccc3C2)ccc1O` (centres unmarked), the T/C % came out at 94%.

The molecule `CCC(C)(C)n1nnnc1C(c1cc(OC)ccc1O)N1CCc2ccccc2C1` (centres unmarked) yielded a T/C % of 100%.

With `COCCn1nnnc1C(c1cc(OC)ccc1OC)N1CCc2ccccc2C1` (centres unmarked), the T/C % amounted to 90%.

`COc1ccc(C(c2nnnn2Cc2ccc(C)cc2)N2CCc3ccccc3C2)cc1` (centres unmarked) displayed a T/C % of 112%.

On to `Cc1ccc(C(c2nnnn2C2CCCC2)N2CCc3ccccc3C2)cc1` (centres unmarked), for which the T/C % came out at 105%.

`Cc1ccc(C(c2nnnn2CCc2ccccc2)N2CCc3ccccc3C2)cc1` (centres unmarked) came in with a T/C % of 108%.

Molecule `CCC(C)(C)n1nnnc1C(c1ccc(F)cc1)N1CCc2ccccc2C1` (centres unmarked) returned a T/C % of 155%.

On to `CCC(C)(C)n1nnnc1C(c1ccccc1OC)N1CCc2ccccc2C1` (centres unmarked), for which the T/C % amounted to 215%.

On to `COc1cc(C(c2nnnn2C2CCCCC2)N2CCc3ccccc3C2)ccc1O` (centres unmarked), for which the T/C % is reported as 97%.

With `Oc1ccc(C(c2nnnn2Cc2ccc(F)cc2)N2CCc3ccccc3C2)cc1` (centres unmarked), the T/C % is on record as 113%.

In the case of `COc1ccc(OC)c(C(c2nnnn2CCc2ccccc2)N2CCc3ccccc3C2)c1` (centres unmarked), the T/C % is recorded as 78%.

In turn, `c1ccc(CCn2nnnc2C(c2ccccc2)N2CCc3ccccc3C2)cc1` (centres unmarked) [drawing 106] displayed a T/C % of 128%.
